{"source": "patent US20120165332A1", "about": "“SULFONAMIDES AND SULFAMIDES AS ZAP-70 INHIBITORS” (Cellzome Limited, priority 2009, published 2012)", "data": [{"biological_target": "T1, ZAP-70 (Homo sapiens, UniProt P43403)", "T1 construct": "endogenous in cells; host or cells: cell lysate", "T1 sequence (P43403 1-619)": "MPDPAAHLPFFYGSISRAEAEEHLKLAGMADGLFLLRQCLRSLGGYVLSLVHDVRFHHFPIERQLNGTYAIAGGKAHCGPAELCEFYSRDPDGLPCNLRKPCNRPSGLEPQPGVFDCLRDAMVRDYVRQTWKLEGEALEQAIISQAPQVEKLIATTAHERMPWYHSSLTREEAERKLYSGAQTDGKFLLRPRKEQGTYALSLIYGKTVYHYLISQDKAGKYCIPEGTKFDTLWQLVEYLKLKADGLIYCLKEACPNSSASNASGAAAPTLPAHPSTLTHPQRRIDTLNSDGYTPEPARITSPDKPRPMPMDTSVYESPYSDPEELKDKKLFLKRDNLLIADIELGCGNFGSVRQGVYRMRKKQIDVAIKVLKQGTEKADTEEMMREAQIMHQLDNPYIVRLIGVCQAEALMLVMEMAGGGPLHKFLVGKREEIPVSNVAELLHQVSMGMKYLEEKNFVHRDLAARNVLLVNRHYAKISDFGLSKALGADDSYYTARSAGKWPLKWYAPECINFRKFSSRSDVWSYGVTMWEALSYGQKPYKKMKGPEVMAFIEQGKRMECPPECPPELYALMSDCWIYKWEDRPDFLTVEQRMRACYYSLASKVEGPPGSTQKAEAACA", "assay": "ZAP-70 kinobeads assay", "assay_type": "binding", "details": "cell lysate, affinity matrix with immobilized aminopyrido-pyrimidine ligand 24, dot blot detection", "description": "The compounds of the present invention as described in the previous examples can be tested in the ZAP-70 kinobeads assay as described (EP-A 1862802 and WO-A 2007/137867). Briefly, test compounds (at various concentrations) and the affinity matrix with the immobilized aminopyrido-pyrimidine ligand 24 are added to cell lysate aliquots and allowed to bind to the proteins in the lysate sample. After the incubation time the beads with captured proteins are separated from the lysate. Bound proteins are then eluted and the presence ZAP-70 is detected and quantified using a specific antibody in a dot blot procedure and the Odyssey infrared detection system.", "units": {"IC50": "µM"}, "values": [{"smiles": "CS(=O)(=O)N(CCN1CCOCC1)c1ccccc1Nc1nc(Nc2cccc(O)c2)ncc1F", "note": "[Example 32, N-(2-(5-fluoro-2-(3-hydroxyphenylamino)pyrimidin-4-ylamino)phenyl)-N-(2-morpholinoethyl)methanesulfonamide]", "IC50": "1 to 10"}, {"smiles": "COc1cc(Nc2ncc(F)c(Nc3cccc(C)c3N(CC#N)S(C)(=O)=O)n2)cc(OC)c1OC", "note": "[Example 17, N-(cyanomethyl)-N-(2-(5-fluoro-2-(3,4,5-trimethoxyphenylamino)pyrimidin-4-ylamino)-6-methylphenyl)methanesulfonamide]", "IC50": "1 to 10"}, {"smiles": "COc1cc(Nc2ncc(F)c(Nc3cccc(C)c3N(CCNC=O)S(C)(=O)=O)n2)cc(OC)c1OC", "note": "[Example 20, N-(2-(N-(2-(5-fluoro-2-(3,4,5-trimethoxyphenylamino)pyrimidin-4-ylamino)-6-methylphenyl)methylsulfonamido)ethyl)formamide]", "IC50": "0.1 to 1"}]}]}
